Values after ≈ are worked out from the molar mass of the structure shown. Structures can show the parent of a compound that is named as a salt.

The results in this text go back to patent publication US4447422A, “Penicillins and compositions containing them” (Beecham Group p.1.c., priority 1981, dated 1984).

For one assay, the system named is E coli NCTC 10418. The experiment in a line: antibacterial activity (MIC). Format: cell-based. To be noted: Escherichia coli, NCTC10418; Table 2; gram negative organism E. coli NCTC 10418.
The test system of a further assay is Staph aureus Oxford. The assay is described as follows: antibacterial activity (MIC). Format: cell-based. The note with it: Staphylococcus aureus; Table 2; gram positive organism Staph. aureus Oxford; read-out: MIC.

`COc1ccc(CNc2ncc(C(=O)N[C@@H](C(=O)N[C@@H]3C(=O)N4[C@@H]3SC(C)(C)[C@@H]4C(=O)O)c3ccccc3)c(O)n2)cc1` [Example 9, 6β-[D-2-(2-[4-Methoxybenzylamino]-4-hydroxypyrimidine-5-carbonylamino)-2-phenyl] acetamido penicillanic acid, disodium salt]: the minimum inhibitory concentration (MIC) in the assay with E coli NCTC 10418 worked out at 5 µg/mL; with Staph aureus Oxford, 0.25 µg/mL.
On to `CC(C)COC(=O)Nc1ncc(C(=O)N[C@@H](C(=O)N[C@@H]2C(=O)N3[C@@H]2SC(C)(C)[C@@H]3C(=O)O)c2ccccc2)c(O)n1` [Example 24, 6β-D-2-(2-Isobutyloxycarbonylamino-4-hydroxypyrimidine-5-carbonylamino)-2-phenyl]acetamido penicillanic acid, disodium salt], for which the MIC with E coli NCTC 10418 came to 5 µg/mL; with Staph aureus Oxford it was 0.5 µg/mL.
For the compound `CC1(C)S[C@@H]2[C@H](NC(=O)[C@H](NC(=O)c3cnc(NCc4ccc(Cl)cc4)nc3O)c3ccccc3)C(=O)N2[C@H]1C(=O)O` [Example 6, 6β-D-[2-(2-[4Chlorobenzylamino]-4-hydroxypyrimidine-5-carbonylamino)-2-phenyl] acetamido penicillanic acid], the MIC against E coli NCTC 10418 was 5 µg/mL (≈ 8.18 µM); in the assay with Staph aureus Oxford it was 0.2 µg/mL (≈ 0.327 µM).
Regarding `CCCCCNc1ncc(C(=O)N[C@@H](C(=O)N[C@@H]2C(=O)N3[C@@H]2SC(C)(C)[C@@H]3C(=O)O)c2ccccc2)c(O)n1` [Example 18, 6β-[D-2-(2-n-Pentylamino-4-hydroxypyrimidine-5-carbonylamino)-2-phenyl] acetamido penicillanic acid, disodium salt], the MIC in the assay with E coli NCTC 10418 and with Staph aureus Oxford was 1.25 µg/mL in each case.
Regarding `CCCCCCCCNc1ncc(C(=O)N[C@@H](C(=O)N[C@@H]2C(=O)N3[C@@H]2SC(C)(C)[C@@H]3C(=O)O)c2ccccc2)c(O)n1` [Example 20, 6β-[D-2-(2-n-Octylamino-4-hydroxypyrimidine-5-carbonylamino)-2-phenyl] acetamido penicillanic acid, disodium salt], the MIC came out at 10 µg/mL in the assay on E coli NCTC 10418 and 2.5 µg/mL in the assay on Staph aureus Oxford.
On to `CC1(C)S[C@@H]2[C@H](NC(=O)[C@H](NC(=O)c3cnc(NC(=O)c4ccccc4)nc3O)c3ccccc3)C(=O)N2[C@H]1C(=O)O` [Example 23, 6β-[D-2-(2-benzoylamino-4-hydroxypyrimidine-5-carbonylamino)-2-phenyl] acetamido penicillanic acid, disodium salt], for which the results for the MIC against E coli NCTC 10418 and with Staph aureus Oxford were 5 µg/mL and 0.5 µg/mL, respectively.
For `COCCCNc1ncc(C(=O)N[C@@H](C(=O)N[C@@H]2C(=O)N3[C@@H]2SC(C)(C)[C@@H]3C(=O)O)c2ccccc2)c(O)n1` [Example 12, 6β-[D-2-(2-[3-methoxypropyl-1-amino]-4-hydroxypyrimidine-5-carbonylamino)-2-phenyl] acetamido penicillanic acid, disodium salt], the values for the MIC against E coli NCTC 10418 and with Staph aureus Oxford were 5 µg/mL and 1.2 µg/mL, respectively.
The matching figures for `CCSCCNc1ncc(C(=O)N[C@@H](C(=O)N[C@@H]2C(=O)N3[C@@H]2SC(C)(C)[C@@H]3C(=O)O)c2ccc(O)cc2)c(O)n1` [Example 14, 6β-[D-2-(2-[2-(ethylthio)ethyl-1-amino]-4-hydroxypyrimidine-5-carbonylamino)-2-(4-hydroxyphenyl)]acetamidopenicillanic acid, disodium salt]: 2.5 µg/mL and 1.2 µg/mL.
Consider `CC1(C)S[C@@H]2[C@H](NC(=O)[C@H](NC(=O)c3cnc(NCc4ccccc4)nc3O)c3ccc(O)cc3)C(=O)N2[C@H]1C(=O)O` [Example 4, 6β-[D-2-(2-Benzylamino-4-hydroxypyrimidine-5-carbonylamino)-2-(4-hydroxyphenyl)] acetamido penicillanic acid disodium salt], for which the MIC in the assay with E coli NCTC 10418 is 5 µg/mL; with Staph aureus Oxford it was 1.25 µg/mL.
With `CCCCCCNc1ncc(C(=O)N[C@@H](C(=O)N[C@@H]2C(=O)N3[C@@H]2SC(C)(C)[C@@H]3C(=O)O)c2ccccc2)c(O)n1` [Example 19, 6β-[D-2-(2-n-hexylamino-4-hydroxypyrimidine-5-carbonylamino)-2-phenyl] acetamido penicillanic acid, disodium salt], the MIC against E coli NCTC 10418 was 1.2 µg/mL; in the assay with Staph aureus Oxford it was 0.5 µg/mL.
On to `CCCC(=O)Nc1ncc(C(=O)N[C@@H](C(=O)N[C@@H]2C(=O)N3[C@@H]2SC(C)(C)[C@@H]3C(=O)O)c2ccccc2)c(O)n1` [Example 22, 6β-[D-2-(2-n-butyrylamino-4-hydroxypyrimidine-5-carbonylamino)-2-phenyl] acetamido penicillanic acid, disodium salt], for which the figures for the MIC against E coli NCTC 10418 and with Staph aureus Oxford were 5 µg/mL and 0.5 µg/mL, respectively.
On to `COCCNc1ncc(C(=O)N[C@@H](C(=O)N[C@@H]2C(=O)N3[C@@H]2SC(C)(C)[C@@H]3C(=O)O)c2ccccc2)c(O)n1` [Example 13, 6β-[D-2-(2-Methoxyethyl-1-amino]-4-hydroxypyrimidine-5-carbonylamino)-2-phenyl] acetamido penicillanic acid, disodium salt], for which the MIC against E coli NCTC 10418 was 5 µg/mL; in the assay with Staph aureus Oxford, 0.5 µg/mL.
Take `CC1(C)S[C@@H]2[C@H](NC(=O)[C@H](NC(=O)c3cnc(NCc4ccco4)nc3O)c3ccccc3)C(=O)N2[C@H]1C(=O)O` [Example 10, 6β-[D-2-(2-Furfurylamino-4-hydroxypyrimidine-5-carbonylamino)-2-phenyl] acetamido penicillanic acid, disodium salt]: the values for the MIC with E coli NCTC 10418 and in the assay with Staph aureus Oxford were 5 µg/mL and 1.2 µg/mL, respectively.
With `COc1cc(CNc2ncc(C(=O)N[C@@H](C(=O)N[C@@H]3C(=O)N4[C@@H]3SC(C)(C)[C@@H]4C(=O)O)c3ccccc3)c(O)n2)ccc1O` [Example 8, 6β-[D-2-(2[4-Hydroxy-3-methoxybenzylamino]-4-hydroxypyrimidine-5-carbonylamino)-2-phenyl] acetamido penicillanic acid, disodium salt], the values for the MIC in the assay with E coli NCTC 10418 and in the assay on Staph aureus Oxford were 10 µg/mL and 1.2 µg/mL, respectively.
On to `CC1(C)S[C@@H]2[C@H](NC(=O)[C@H](NC(=O)c3cnc(NC(=O)OCc4ccccc4)nc3O)c3ccccc3)C(=O)N2[C@H]1C(=O)O` [Example 25, 6β-D-2-(2-benzyloxycarbonylamino-4-hydroxypyrimidine-5-carbonylamino-2-phenyl] acetamido penicillanic acid, disodium salt], for which the figures for the MIC in the assay on E coli NCTC 10418 and in the assay on Staph aureus Oxford were 2.5 µg/mL and 0.2 µg/mL, respectively.
For `CC1(C)S[C@@H]2[C@H](NC(=O)[C@H](NC(=O)c3cnc(NCCc4ccccc4)nc3O)c3ccc(O)cc3)C(=O)N2[C@H]1C(=O)O` [Example 5, 6β-[D-2-(2-(2-phenylethyl-1-amino)-4-hydroxypyrimidine-5-carbonylamino)-2-(4-hydroxyphenyl)] acetamido penicillanic acid] the same measures were 5 µg/mL (≈ 8.24 µM) and 1.2 µg/mL (≈ 1.98 µM).
For the compound `CC1(C)S[C@@H]2[C@H](NC(=O)[C@H](NC(=O)c3cnc(NCc4ccc(S(N)(=O)=O)cc4)nc3O)c3ccccc3)C(=O)N2[C@H]1C(=O)O` [Example 7, 6β-[D-2-(2-[4-sulphonamidobenzylamino]-4-hydroxypyrimidine-5-carbonylamino)-2-phenyl]acetamido penicillanic acid, disodium salt], the MIC against E coli NCTC 10418 is 10 µg/mL; in the assay with Staph aureus Oxford, 2.5 µg/mL.

By MIC is commonly meant the lowest concentration found to suppress growth.
